According to US20200223826A1, “Glucose-6-Phosphate Dehydrogenase (G6PD)-Modulating Agents And Methods Of Treating G6PD Deficiency” (The Board of Trustees of the Leland Stanford Junior …, priority 2017, published 2020):

Columns and labels:
[1] = target: T1, G6PD in human erythrocytes (Homo sapiens, UniProt P11413); assay: Erythrocyte refrigerated storage assay, G6PD activity; type: cell-based; settings: AG1 1 μM
T1 construct: host or cells: human erythrocytes
Method: (§1) De-identified blood samples were obtained from the Stanford Blood Center. Erythrocytes were collected by filtering the samples through a cellulose slurry to remove platelets and leukocytes and then washed with saline. G6PD activity was measured (Beutler E. Red cell metabolism: A manual of biochemical methods (3rd edition). Grune & Stratton (1984)). […] A 5% erythrocyte suspension was pre-incubated with 1-5 μM AG1 at 4° C. overnight, which was followed by treatment with (or without) either 1 mM chloroquine (CQ) or 1 mM diamide for 3-4 hours at 37° C. (for hemolysis assay with chloroquine, the mixture was incubated under light). Then centrifugation at 1,000 rpm for 5 minutes was followed. Hemoglobin release in the supernatant was monitored by measuring absorbance at 540 nm. […] After wash, the samples were lysed with 0.1% Triton X-100 (final concentration), and the florescence was analyzed with excitation/emission at 485/525 nm. GSH measurement was determined using a Cayman glutathione assay kit (Cayman Chemicals, 703002). […] The absorbance was read at 412 nm. For storage assay, a 5% erythrocyte suspension was stored at 4° C. with and without 1 μM AG1, and hemolysis and G6PD activity were monitored every week for 28 days to examine whether AG1 improves preservation of erythrocytes over time. Protein leakage was also examined by measuring the absorbance of the supernatant of samples at 280 nm. […]

human erythrocytes = assay: Hemolysis of human erythrocytes under oxidative stressors; type: cell-based
Method: as §1

[2] = system: G6PD in zebrafish embryo lysates; assay: G6PD activity in lysates of pooled zebrafish embryos; type: in vivo; settings: lysates of pooled AG1-treated embryos
Method: Embryos were dechorinated with pronase at 24 hours post fertilization (hpf) and treated with 50 μg/ml of chloroquine and/or AG1 by directly adding the compounds to the well. For ROS measurements, embryos were incubated with compounds for 2 hours, and then the ROS detecting reagent (CM-H2DCFDA) was added at a final concentration of 500 ng/ml to the well for a total treatment time of 5 hours. One embryo was placed to each well of a black, opaque 96-well plate. The florescence was analyzed with excitation/emission at 485/525 nm. After ROS assays, embryos at about 32 hpf were pooled and lysed in buffer containing 50 mM Tris (pH 7.4), 150 mM NaCl, 1 mM EDTA, 0.1% NP-40, and protease inhibitor cocktail, which was followed by three cycles of freeze and thawing in liquid nitrogen. The lysate was centrifuged at 14,000 rpm at 4° C. for 15 minutes. Total protein concentration in the supernatants (total lysate) was determined by Bradford method. 50 μg of total lysate was loaded onto 10% SDS-PAGE gels and the protein level was examined by Western blot using anti-G6PD antibody (Abcam (G6PD: AB87230)). 10 μg of total lysate was used for enzymatic assay. 50 μg of the lysate was used to measure NADPH levels using a NADPH quantification kit (Biovision), according to the manufacturer's instructions.

[3] = target: glyceraldehyde 3-phosphate dehydrogenase (GAPDH) (Homo sapiens, UniProt P04406); assay: Selectivity: dimerization or activity of other NAD/NADP+-dependent enzymes; type: biochemical
[4] = system: lymphocytes carrying the Canton variant; assay: Glutathione (GSH) measurement in lymphocytes; type: cell-based, human; settings: treatment with AG1 for 24 hours
Method: Total glutathione level was measured using a Total Glutathione Quantification Kit (Dojindo), according to the manufacturer's instructions. The assay utilized DTNB (5,5′-dithio-bis-(2-nitrobenzoic acid)) that reacts with glutathione to produce 5-mercapto-2-nitrobenzoic acid, a yellow colored product. Cells were subjected to serum starvation (50-75%) for 48 hours to induce oxidative stress and treated with the compound for 24 hours before measurement. The absorbance was read at 412 nm.

g6pd crispant embryos = assay: g6pd crispant zebrafish embryos; type: in vivo; settings: 1 μM AG1
Method: sgRNA against Exon 10 of g6pd was designed using CHOPCHOP and in vitro transcribed according to standard protocols. The gene-specific oligo sequence was: 5′-[…] CAAG-3′ (SEQ ID NO: //). sgRNA and Cas9 protein (NEB) were mixed and microinjected into one-cell-stage embryos. For each injected clutch, 10 individual embryos were isolated at 24 hpf for sequencing to confirm introduction of a CRISPR-mediated indel in exon 10.
Embryos were dechorinated with pronase at 24 hours post fertilization (hpf) and treated with 50 μg/ml of chloroquine and/or AG1 by directly adding the compounds to the well. For ROS measurements, embryos were incubated with compounds for 2 hours, and then the ROS detecting reagent (CM-H2DCFDA) was added at a final concentration of 500 ng/ml to the well for a total treatment time of 5 hours. One embryo was placed to each well of a black, opaque 96-well plate. The florescence was analyzed with excitation/emission at 485/525 nm. […] Total protein concentration in the supernatants (total lysate) was determined by Bradford method. […] 50 μg of the lysate was used to measure NADPH levels using a NADPH quantification kit (Biovision), according to the manufacturer's instructions.

SH-SY5Y cells = assay: Cell viability assay, SH-SY5Y cells, with and without G6PD siRNA knockdown; type: cell-based, human
Method: Cell viability was measured using a Cell-Counting Kit-8 (CCK-8, Dojindo), utilizing WST-8 [2-(2-methoxy-4-nitrophenyl)-3-(4-nitrophenyl)-5-(2,4-disulfophenyl)-2H-tetrazolium monosodium salt, according to the manufacturer's instructions. Cells were subjected to serum starvation for 48 hours before measurement. Cells in 100 μL of medium per well were treated with 10 μL of CCK-8 solution and incubated for 2 hours at 37° C. The absorbance was read at 450 nm. Viability of lymphocytes was measured by staining with a 0.4% solution of trypan blue in buffered isotonic salt solution (pH 7.2). The viability was calculated as the number of viable cells (non-stained by the dye) divided by the total number of cells within the grids on the hemacytometer. Cells were treated with 1 μM of the compound 24 hours before the measurement.
Endogenous G6PD was knocked down in each cell line as follows; 2 pmol of siRNA G6PD (Santa Cruz Biotechnology) and 0.5 μg lipofectamine (Invitrogen) were diluted in 10 μL of Opti-MEM medium respectively and incubated for 5 minutes. The diluted siRNA was combined with diluted lipofectamine, which was followed by additional incubation for 20 minutes prior to the addition to cells in a 96-well plate.

T1 sequence (P11413 2-515 limits assumed): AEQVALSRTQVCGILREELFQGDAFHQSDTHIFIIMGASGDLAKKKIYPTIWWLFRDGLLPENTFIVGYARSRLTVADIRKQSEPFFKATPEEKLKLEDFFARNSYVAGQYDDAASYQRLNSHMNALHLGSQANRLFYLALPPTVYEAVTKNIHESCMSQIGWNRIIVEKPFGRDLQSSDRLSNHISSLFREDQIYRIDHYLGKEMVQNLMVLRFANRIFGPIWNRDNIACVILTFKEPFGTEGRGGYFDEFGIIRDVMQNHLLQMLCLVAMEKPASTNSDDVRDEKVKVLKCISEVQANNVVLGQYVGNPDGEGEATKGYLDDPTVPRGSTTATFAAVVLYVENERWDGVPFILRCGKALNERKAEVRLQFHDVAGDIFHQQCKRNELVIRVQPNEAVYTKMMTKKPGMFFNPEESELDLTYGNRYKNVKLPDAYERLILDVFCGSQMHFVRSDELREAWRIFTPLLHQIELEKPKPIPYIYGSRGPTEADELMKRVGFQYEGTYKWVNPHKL
Chain of glyceraldehyde 3-phosphate dehydrogenase (GAPDH) (P04406 whole entry, species assumed): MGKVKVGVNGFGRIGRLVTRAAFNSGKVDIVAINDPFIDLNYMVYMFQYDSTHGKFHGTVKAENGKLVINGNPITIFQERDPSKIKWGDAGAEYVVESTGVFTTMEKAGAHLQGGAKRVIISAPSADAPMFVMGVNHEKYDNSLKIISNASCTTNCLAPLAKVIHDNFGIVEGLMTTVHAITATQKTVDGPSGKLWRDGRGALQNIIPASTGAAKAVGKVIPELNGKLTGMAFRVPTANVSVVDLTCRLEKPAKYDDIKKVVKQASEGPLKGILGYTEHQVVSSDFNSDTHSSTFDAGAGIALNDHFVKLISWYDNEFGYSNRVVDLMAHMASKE

SCCNCCc1c[nH]c2ccccc12 [AG1, 2-[2-(1H-indol-3-yl)ethylamino]ethanethiol]
G6PD activity [1]: increased | chloroquine-induced hemolysis (human erythrocytes; AG1 1 μM): rescued | extent of hemolysis (human erythrocytes; AG1 5 μM, 5% erythrocyte suspension, 1 mM chloroquine or diamide): reduces the extent of hemolysis | G6PD activity [2]: slight increase | effect on dimerization or activity [3]: no effect | level of GSH [4]: slightly increased | ROS, G6PD activity, NADPH level, pericardial edema (g6pd crispant embryos): did not significantly affect | increase of viability of SH-SY5Y cells (SH-SY5Y cells; 1 μM of AG1): 20% | effect on viability of SH-SY5Y cells (SH-SY5Y cells; G6PD knocked down by siRNA): no effect
